Source: patent publication US20240228488A1 (TAKEDA PHARMACEUTICAL COMPANY LIMITED, priority 2021, published 2024)

Key:
[1] = biological target: human activated kallikrein enzyme (Homo sapiens, UniProt P03952); assay: Plasma kallikrein inhibition, fluorogenic PFR-AMC substrate, 500 pM activated kallikrein format; format: biochemical; details: 500 pM activated kallikrein, 300 uM PFR-AMC, 30 min preincubation, 10 min reaction; read-out: Primary Dose Response Assay: Average EC50
Method in brief: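 High-enzyme format of the fluorogenic peptide assay, with EC50 taken from AMC signal: 500 pM activated kallikrein, 300 uM Pro-Phe-Arg-AMC, 30 min compound preincubation and 10 min reaction, all at room temperature, pH 7.5.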

plasma kallikrein = biological target: T1, plasma kallikrein (Homo sapiens, UniProt P03952); assay: Neat human plasma assay, FXIIa contact pathway-activated, PFR-AMC substrate; format: biochemical; details: citrated human plasma 78% final, 10 nM human FXIIa, 100 μM PFR-AMC; read-out: Human Plasma Assay: IC90
T1 construct: from tissue
Method in brief: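 Compound inhibition of plasma kallikrein measured as PFR-AMC (100 μM) cleavage rate over 5 min at room temperature in 78% citrated human plasma activated with 10 nM FXIIa (Tris pH 7.5 buffer). IC50/IC90 from 4-parameter fit of rate versus inhibitor concentration.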

T1 sequence (P03952 391-638 limits assumed): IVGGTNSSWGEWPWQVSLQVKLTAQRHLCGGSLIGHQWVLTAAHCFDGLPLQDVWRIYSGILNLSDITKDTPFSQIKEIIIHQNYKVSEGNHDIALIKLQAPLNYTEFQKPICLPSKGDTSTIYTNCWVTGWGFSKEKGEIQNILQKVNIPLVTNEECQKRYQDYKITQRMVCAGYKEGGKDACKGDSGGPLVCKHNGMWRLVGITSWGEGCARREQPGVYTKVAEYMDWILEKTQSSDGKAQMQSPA
T1 sequence (P03952 20-390 partner limits assumed): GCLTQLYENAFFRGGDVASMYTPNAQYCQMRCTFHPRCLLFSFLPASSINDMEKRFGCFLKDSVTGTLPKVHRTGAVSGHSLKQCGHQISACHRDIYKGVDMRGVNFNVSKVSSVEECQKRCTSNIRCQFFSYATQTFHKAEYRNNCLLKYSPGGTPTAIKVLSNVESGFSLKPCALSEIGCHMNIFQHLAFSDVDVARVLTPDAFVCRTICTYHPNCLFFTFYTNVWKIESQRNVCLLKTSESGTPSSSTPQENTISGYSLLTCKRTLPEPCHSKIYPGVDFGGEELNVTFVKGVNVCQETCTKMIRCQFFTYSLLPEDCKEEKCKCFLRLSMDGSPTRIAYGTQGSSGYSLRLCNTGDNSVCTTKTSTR
Chain of human activated kallikrein enzyme (P03952 391-638 limits assumed): as the sequence (P03952 391-638 limits assumed) above
Chain of human activated kallikrein enzyme (P03952 20-390 partner limits assumed): as the sequence (P03952 20-390 partner limits assumed) above

| EC50 [1] | IC90 (plasma kallikrein) | SMILES |
| --- | --- | --- |
| < 1 nM | 400 to 1500 nM | CN1CCN(c2cc(C3CC3)cn3cc(CNc4ccnc(NC(=O)[C@@H]5C[C@H]5c5cc(Cl)ccc5C#N)c4)nc23)CC1 (racemic) [Example 143, rac-(1S*,2S*)-2-(5-chloro-2-cyanophenyl)-N-(4-(((6-cyclopropyl-8-(4-methylpiperazin-1-yl)imidazo[1,2-a]pyridin-2-yl)methyl)amino)pyridin-2-yl)cyclopropane-1-carboxamide] |
| < 1 nM | 1500 to 10000 nM | O=C(Nc1cc(N(CCO)Cc2cn3cc(C4CC4)ccc3n2)ccn1)[C@H]1C[C@@H]1c1cc(Cl)ccn1 [Example 137, (1S,2S)-2-(4-chloropyridin-2-yl)-N-(4-(((6-cyclopropylimidazo[1,2-a]pyridin-2-yl)methyl)(2-hydroxyethyl)amino)pyridin-2-yl)cyclopropane-1-carboxamide] |
| < 1 nM | < 400 nM | Cc1ccnc([C@H]2C[C@@H]2C(=O)Nc2cc(NCc3cn4cc(C5CC5)cc(N5CCOC5=O)c4n3)ncn2)n1 (racemic) [Example 390, rac-(1S*,2S*)-N-(6-(((6-cyclopropyl-8-(2-oxooxazolidin-3-yl)imidazo[1,2-a]pyridin-2-yl)methyl)amino)pyrimidin-4-yl)-2-(4-methylpyrimidin-2-yl)cyclopropane-1-carboxamide] |
| < 1 nM | 1500 to 10000 nM | Cc1ccnc([C@H]2C[C@@H]2C(=O)Nc2nc(NCc3cn4cc(C5CC5)cc(N5CC(=O)N(C)C5=O)c4n3)cc(C3CC3)n2)n1 (racemic) [Example 539, rac-(1S*,2S*)—N-(4-cyclopropyl-6-(((6-cyclopropyl-8-(3-methyl-2,4-dioxoimidazolidin-1-yl)imidazo[1,2-a]pyridin-2-yl)methyl)amino)pyrimidin-2-yl)-2-(4-methylpyrimidin-2-yl)cyclopropane-1-carboxamide] |
| 1 to 10 nM | 1500 to 10000 nM | Cc1ccnc([C@H]2C[C@@H]2C(=O)Nc2cc(NC(C)c3cn4cc(C5CC5)cc(N5CC(=O)N(CCO)C5=O)c4n3)nc(C3CC3)n2)n1 (stereo partly drawn) [Example 460, (1S,2S)—N-(2-cyclopropyl-6-((1-(6-cyclopropyl-8-(3-(2-hydroxyethyl)-2,4-dioxoimidazolidin-1-yl)imidazo[1,2-a]pyridin-2-yl)ethyl)amino)pyrimidin-4-yl)-2-(4-methylpyrimidin-2-yl)cyclopropane-1-carboxamide] |
| < 1 nM | 400 to 1500 nM | CN1C(=O)CN(c2cc(C3CC3)cn3cc(CNc4cc(NC(=O)[C@H]5C[C@@H]5c5nccc(Cl)n5)ncn4)nc23)C1=O (racemic) [Example I-168, rac-(1S*,2S*)-2-(4-chloropyrimidin-2-yl)-N-(6-(((6-cyclopropyl-8-(3-methyl-2,4-dioxoimidazolidin-1-yl)imidazo[1,2-a]pyridin-2-yl)methyl)amino)pyrimidin-4-yl)cyclopropane-1-carboxamide] |
| < 1 nM | 1500 to 10000 nM | CN(C)C1CN(c2cc(C3CC3)cn3cc(CNc4ccnc(NC(=O)[C@H]5C[C@@H]5c5cccc(Cl)c5)c4)nc23)C1 [Example I-4, (1S,2S)-2-(3-chlorophenyl)-N-(4-(((6-cyclopropyl-8-(3-(dimethylamino)azetidin-1-yl)imidazo[1,2-a]pyridin-2-yl)methyl)amino)pyridin-2-yl)cyclopropane-1-carboxamide] |
| < 1 nM | 1500 to 10000 nM | N#Cc1ccc(Cl)cc1[C@H]1C[C@@H]1C(=O)Nc1cc(NCc2cn3cc(C4CC4)cc(COCCO)c3n2)ccn1 (racemic) [Example 289, rac-(1S*,2S*)-2-(5-chloro-2-cyanophenyl)-N-(4-(((6-cyclopropyl-8-((2-hydroxyethoxy)methyl)imidazo[1,2-a]pyridin-2-yl)methyl)amino)pyridin-2-yl)cyclopropane-1-carboxamide] |
| 1 to 10 nM | 10000 to 48000 nM | CC(C)(O)c1cc(C2CC2)cn2cc(CNc3cc(NC(=O)[C@H]4C[C@@H]4c4cc(Cl)ccc4C#N)ncn3)nc12 (racemic) [Example 337, (rac-(1S*,2S*))-2-(5-chloro-2-cyanophenyl)-N-(6-(((6-cyclopropyl-8-(2-hydroxypropan-2-yl)imidazo[1,2-a]pyridin-2-yl)methyl)amino)pyrimidin-4-yl)cyclopropane-1-carboxamide] |
| < 1 nM | 400 to 1500 nM | O=C(Nc1cc(NCc2cn3cc(C4CC4)cc(N4CCNCC4)c3n2)ccn1)[C@H]1C[C@@H]1c1cccc(Cl)c1 [Example 132, (1S,2S)-2-(3-chlorophenyl)-N-(4-(((6-cyclopropyl-8-(piperazin-1-yl)imidazo[1,2-a]pyridin-2-yl)methyl)amino)pyridin-2-yl)cyclopropane-1-carboxamide] |
| 1 to 10 nM | 1500 to 10000 nM | CN1C(=O)CN(c2cc(C3CC3)cn3cc(CNc4cc(NC(=O)[C@@H]5[C@@H](c6cccc(Cl)c6)C5(F)F)ncn4)nc23)C1=O (racemic) [Example 543, rac-(1S*,3S*)-3-(3-chlorophenyl)-N-(6-(((6-cyclopropyl-8-(3-methyl-2,4-dioxoimidazolidin-1-yl)imidazo[1,2-a]pyridin-2-yl)methyl)amino)pyrimidin-4-yl)-2,2-difluorocyclopropane-1-carboxamide] |
| < 1 nM | 1500 to 10000 nM | Cc1ccnc([C@H]2C[C@@H]2C(=O)Nc2cc(NC(C)c3cn4cc(C5CC5)cc(N5CC(=O)N(C)C5=O)c4n3)ncn2)n1 (relative stereo) [Example 449, rac-(1S*,2S*)—N-(6-((1-(6-cyclopropyl-8-(3-methyl-2,4-dioxoimidazolidin-1-yl)imidazo[1,2-a]pyridin-2-yl)ethyl)amino)pyrimidin-4-yl)-2-(4-methylpyrimidin-2-yl)cyclopropane-1-carboxamide] |
| 1 to 10 nM | 10000 to 48000 nM | COCc1nc(NCc2cn3cc(C4CC4)ccc3n2)cc(NC(=O)[C@@H]2C[C@H]2c2cccc(Cl)c2)n1 (racemic) [Example 108, rac-(1S*,2S*)-2-(3-chlorophenyl)-N-(6-(((6-cyclopropylimidazo[1,2-a]pyridin-2-yl)methyl)amino)-2-(methoxymethyl)pyrimidin-4-yl)cyclopropane-1-carboxamide] |
| < 1 nM | < 400 nM | O=C(Nc1cc(NCc2cn3cc(C4CC4)cc(N4CCNCC4)c3n2)ncn1)[C@H]1C[C@@H]1c1cccc(Cl)c1 [Example 307, (1S,2S)-2-(3-chlorophenyl)-N-(6-(((6-cyclopropyl-8-(piperazin-1-yl)imidazo[1,2-a]pyridin-2-yl)methyl)amino)pyrimidin-4-yl)cyclopropane-1-carboxamide] |
| < 1 nM | < 400 nM | CCN1C(=O)CN(c2cc(C3CC3)cn3cc(CNc4cc(NC(=O)[C@H]5C[C@@H]5c5nccc(C)n5)ncn4)nc23)C1=O [Example 385, (1S,2S)-N-(6-(((6-cyclopropyl-8-(3-ethyl-2,4-dioxoimidazolidin-1-yl)imidazo[1,2-a]pyridin-2-yl)methyl)amino)pyrimidin-4-yl)-2-(4-methylpyrimidin-2-yl)cyclopropane-1-carboxamide] |
| < 1 nM | 1500 to 10000 nM | Cc1cc(NCc2cn3cc(C4CC4)ccc3n2)cc(NC(=O)[C@H]2C[C@@H]2c2cccc(Cl)c2)n1 [Example 338, (1S,2S)-2-(3-chlorophenyl)-N-(4-(((6-cyclopropylimidazo[1,2-a]pyridin-2-yl)methyl)amino)-6-methylpyridin-2-yl)cyclopropane-1-carboxamide] |
